Reference: EP2957607B1, “IMAGE FORMING METHOD” (Konica Minolta, Inc., priority 2014, dated 2015)

Experiment: pKa value (acid dissociation constant) of the adsorption inhibitor
Format: physicochemical
From the text: The pKa value is also called the acid dissociation constant, which can be determined by a conventional method. The pKa value can be determined by, for example, the method described in Jikken Kagaku Koza 5, Netsuteki Sokutei oyobi Heiko (Experimental Chemistry Lecture 5, Thermal Measurements and Equilibrium), page 460, edited by The Chemical Society of Japan, Maruzen Co., Ltd.

O=C(O)CC(O)C(=O)O (stereo not shown) [malic acid, Malic acid]
pKa: < 5.5
